Eight compounds from patent publication EP0885186B1, “AMINO ACID DERIVATIVES, PHARMACEUTICAL COMPOSITIONS CONTAINING THESE COMPOUNDS AND PROCESSES FOR PREPARING THEM” (Dr. Karl Thomae GmbH, priority 1995, dated 1997) can be followed below.

The target of one assay is T1, NPY-Y1 receptor (Homo sapiens, UniProt P25929).
T1 construct: endogenous in cells; host or cells: SK-N-MC cells (whole cells in suspension)
T1 sequence (P25929 1-384): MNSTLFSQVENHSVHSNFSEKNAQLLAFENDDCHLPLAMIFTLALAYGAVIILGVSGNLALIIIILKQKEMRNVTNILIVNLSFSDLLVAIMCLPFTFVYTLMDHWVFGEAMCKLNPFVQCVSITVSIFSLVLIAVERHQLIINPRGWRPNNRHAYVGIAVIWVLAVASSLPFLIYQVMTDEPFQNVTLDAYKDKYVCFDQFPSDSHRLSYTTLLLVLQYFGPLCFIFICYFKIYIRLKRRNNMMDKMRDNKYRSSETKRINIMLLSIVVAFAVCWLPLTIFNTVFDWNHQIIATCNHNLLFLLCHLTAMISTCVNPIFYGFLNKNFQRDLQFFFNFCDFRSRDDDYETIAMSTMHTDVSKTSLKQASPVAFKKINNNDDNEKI
Description: Studies of binding with SK-N-MC cells, displacement of [125I]-Bolton-Hunter-NPY. The settings on record: inhibition of specific binding of [125I]-Bolton-Hunter-NPY, 3 hours at ambient temperature. As to the method:
A. Studies of binding with SK-N-MC cells (expressing the human Y1-receptor)
The cells are detached using a mixture of 0.02% EDTA in PBS and resuspended in 10 ml of incubation medium (MEM/25 mM Hepes + 0.5% BSA, 50 µM PMSF, 0.1% bacitracin, 3.75 mM CaCl2) per 40 million cells approx. After 5 minutes' centrifuging (150 x g) the pellet is resuspended in the same volume and, after a further washing step in 10 ml of incubation medium, counted and diluted to 1.25 million cells/ml. Then 200 µl of a suspension of 1.25 million cells/ml is incubated for 3 hours at ambient temperature with 25 µl of a 300 pM solution of [^125I]-Bolton-Hunter-NPY and increasing concentrations (10^-11 to 10^-6 M) of the test substances, whilst maintaining a total volume of 250 µl. Incubation is ended by centrifuging (10 minutes at 3000 x g and 4°C). After washing once with PBS, the radioactivity of the pellet is measured in a gamma counter. The radioactivity thus obtained represents the sum of specific and non-specific binding of [^125I]-Bolton-Hunter-NPY. The proportion of non-specific binding is defined as that radioactivity which is bound in the presence of 1 µM NPY. The IC50 values of the unlabelled test substances are determined graphically. They represent the concentration of the test substance in question at which the specific binding of[^125I]-Bolton-Hunter-NPY to the NPY-Y1 receptor is inhibited by 50%.

The next assay deals with NPY activity. Description: NPY-antagonism in vitro, isolated perfused rat kidney, NPY-induced perfusion pressure increase. Details: species or system rats. The settings on record: inhibition of pressure increase by NPY (1µM) bolus. Here is the method: B. NPY-antagonism in vitro
Male rats (CHbb: THOM, 300 to 350 g) are given heparin (100 IU, i.v.) and the animals are then killed by a blow to the back of the neck. The abdomen is opened along the centre of the body and the left kidney is removed after the insertion of catheters in the renal artery, renal vein and ureter. The isolated kidney is immediately perfused with a modified Krebs-Ringer solution having the following composition (4 ml/minute):
A mixture of 95% O2/5% CO2 is passed through the solution which is kept at a temperature of 37°C. The perfusion pressure is measured continuously using a pressure gauge. After a 60 minute stabilisation period the perfusion rate is adjusted so as to obtain a perfusion pressure of approximately 100 mm Hg. After a further 30 minutes the experiment is started and NPY (1µM) is administered as a bolus (0.1 ml) at 15 minute intervals until the pressure increase observed reaches a constant value. The compounds to be tested are given in the form of a continuous infusion over a period of 5 minutes and then NPY is injected. After a 30 minute wash-out period the next highest concentration of test substance is investigated. 3 to 5 different concentrations of the particular compound are tested on each occasion. […]

The test system of assay [1] is NPY-induced blood pressure effects. Nature of the assay: In vivo NPY-antagonism, pithed rats, NPY-induced increase in diastolic blood pressure. Conditions: test substance injected 1 min before NPY 10 µg/kg i.v. As to the method: C. In vivo NPY-antagonism
Male rats of normal blood pressure (Chbb:THOM, 300 to 350 g) are anaesthetised with sodium hexobarbital (150 mg/kg, i.p.). After intubation of the trachea the animals are pithed by introducing a blunt needle through the eye into the spinal bone marrow channel. The animals are ventilated with oxygen-rich ambient air using a respiratory pump (20 strokes/minute). A cannula is inserted in the left carotid artery and the arterial blood pressure is measured using a pressure gauge (Braun Melsungen Combitrans) connected to a recording device. For injection purposes a catheter is placed in the left jugular vein through which heparin is administered (200 IU/kg, i.v.). After the blood pressure has been stabilised, the animals are given 2 bolus injections of NPY (10 µg/kg, i.v.) at intervals of 15 minutes. The average increase in diastolic blood pressure is taken as the reference value (= 100%). The test substances are injected in increasing doses (4 to 6 doses) at intervals of 15 minutes. One minute after administration of the test substance, NPY is administered.
The antagonistic effect of the test substances is determined by plotting the percentage inhibition of the NPY-induced blood pressure effects against the logarithm of the concentration of active substance.

For the next assay, the system named is NPY-induced food intake. Nature of the assay: Food intake in satiated rats after NPY application to the paraventricular nucleus. It is filed as in vivo. Conditions: for Food intake following NPY application: 2 h intake, satiated rats; for % Inhibition of food intake: versus vehicle + NPY. As to the method: D. In vivo Studies in rats: Food intake in satiated rats
For these determinations food intake was measured in normal satiated rats after application of NPY to the paraventricular nucleus (PVN) in the presence or absence of the test compound. Male Chbb: Thom rats weighing between 300 and 350 g were used for all experiments. The rats were individually housed in stainless steel cages where water and food were available ad libitum.
Rats under Pentobarbital anaesthesia were stereotactically implanted with a stainless steel double guide cannula targeted bilaterally at the PVNs. Stereotactic coordinates were: -1.8mm caudal, 0.5mm lateral to bregma and 7.0mm below the skull surface. Injection cannulae extended the guide cannulae by 1 mm. Animals were allowed to recover from surgery for at least 10 days before being used in the experiments. Rats were handled and mock-injected during the one-week recovery period to habituate them to the injection procedure.
Animals treated with both test compounds and NPY were treated first with the test compound. Then, 15 min. after PVN infusion of the test compound or vehicle (control) 1 µg of NPY was administered by PVN infusion.
Food intake was measured by placing preweighed pellets into the cages at the time of NPY injection. Pellets were removed from the cage at 2 h post NPY injection. The food intake of animals treated with test compound was calculated as a percentage of the food intake of control animals, i.e., animals treated with vehicle.

Another assay deals with food-deprived rats. Nature of the assay: Food intake in food-deprived rats. The assay is classed as in vivo. Conditions: 24 hour food deprived rats, 15 µg, bilaterally, into PVN. As to the method:
Food intake in food-deprived rats
Food-deprivation experiments were conducted with male Chbb:Thom rats weighing between 300 and 350 g. The animals were individually housed for the duration of the study and allowed free access to normal food together with tap water. Food was removed from the animals for 24 hours starting at 8:00 a.m. At the end of the fasting period compound or vehicle was administered to the animals by infusion into the PVN. Food was returned to the animals and their food intake monitored at various time periods during the following 24 hour period. The food intake of animals treated with test compound was calculated as a percentage of the food intake of control animals (i.e., animals treated with vehicle).

The compound `N=C(N)NCCC[C@@H](NC(=O)C(c1ccccc1)c1ccccc1)C(=O)NCc1ccc(CC(N)=O)cc1` [(C), (R)-N-[[4-(aminocarbonylmethyl)phenyl]methyl]-N^2-(diphenylacetyl)-argininamide] had an IC50 at NPY-Y1 receptor of 0.63 nM.
`N=C(N)NCCC[C@@H](NC(=O)C(c1ccccc1)c1ccccc1)C(=O)NCc1ccc(CNC(N)=O)cc1` [(A), (R)-N-[[4-(aminocarbonylaminomethyl)phenyl]methyl]-N^2-(diphenylacetyl)-argininamide] registered a pIC50 in the assay with NPY activity of 8.12 mol/l. The same compound yielded a pID50 in assay [1] of 8.11 mol/kg. Further, the results for the “Food intake following NPY application” value in the assay with NPY-induced food intake (15 µg of compound by PVN infusion 15 min before 1 µg NPY), in the assay on NPY-induced food intake (30 µg of compound by PVN infusion 15 min before 1 µg NPY) and with NPY-induced food intake (60 µg of compound by PVN infusion 15 min before 1 µg NPY) were 2.62 g/animal, 1.67 g/animal and 1.07 g/animal, respectively. The “% Inhibition of food intake” value in the assay on NPY-induced food intake (15 µg of compound by PVN infusion) is 25.9%; with NPY-induced food intake (30 µg of compound by PVN infusion), 52.8%; with NPY-induced food intake (60 µg of compound by PVN infusion), 69.8%. Further, the “duration of significant reduction in food intake” value with food-deprived rats is given as “at least 4 h”.
`CCOC(=O)CNC(=O)NCc1ccc(CNC(=O)[C@@H](CCCNC(=N)N)NC(=O)C(c2ccccc2)c2ccccc2)cc1` [(E), (R)-N^2-(diphenylacetyl)-N-[[4-(ethoxycarbonylmethylamino-carbonylaminomethyl)-phenyl)methyl]-argininamide] had an IC50 at NPY-Y1 receptor of 0.4 nM.
Take “NPY: NPY, agonist applied to the paraventricular nucleus (1 µg) to elicit feeding response in satiated rats”: in the assay with NPY-induced food intake (NPY 1µg into PVN, 0.5 g in animals injected with vehicle), the “two hour food intake” value came to 3.5 g.
Regarding `CCNC(=O)NCc1ccc(CNC(=O)[C@@H](CCCNC(=N)N)NC(=O)C(c2ccccc2)c2ccccc2)cc1` [(D), (R)-N^2-(diphenylacetyl)-N-[[4-(ethylaminocarbonylamino-methyl)phenyl]methyl]-argininamide], the IC50 on NPY-Y1 receptor is 0.75 nM.
As for `N=C(N)NCCC[C@@H](NC(=O)C(c1ccc(Cl)cc1)c1ccc(Cl)cc1)C(=O)NCc1ccc(CNC(N)=O)cc1` [(F), (R)-N-[[4-(aminocarbonylaminomethyl)phenyl]methyl]-N^2-[bis-(4-chlorophenyl)-acetyl]-argininamide], the half-inhibitory concentration (IC50) on NPY-Y1 receptor is 0.35 nM.
In turn, `CN(CCCC(NC(=O)C(c1ccccc1)c1ccccc1)C(=O)NCc1ccc(O)cc1)C(=N)N` (racemic) [(B), (R,S)-N^5-(aminoiminomethyl)-N^2-(diphenylacetyl)-N-[(4-hydroxyphenyl)methyl]-N^5-methyl-ornithinamide] displayed an IC50 at NPY-Y1 receptor of 0.62 nM. Besides, the pIC50 in the assay on NPY activity is 8.41 mol/l. Further, the pID50 in assay [1] worked out at 7.87 mol/kg.
`N=C(N)NCCC[C@@H](NC(=O)C(c1ccc(O)cc1)c1ccc(O)cc1)C(=O)NCc1ccc(CNC(N)=O)cc1` [(G), (R)-N-[[4-(aminocarbonylaminomethyl)phenyl]methyl]-N^2-[bis-(4-hydroxyphenyl)-acetyl]-argininamide] yielded an IC50 on NPY-Y1 receptor of 0.17 nM.
